Measured values as given in ChEMBL document CHEMBL3596144, “New Indole Tubulin Assembly Inhibitors Cause Stable Arrest of Mitotic Progression, Enhanced Stimulation of Natural Killer Cell Cytotoxic Activity, and Repression of Hedgehog-Dependent Cancer” (J Med Chem, 2015).
pIC50: −log10 of the molar value. Blank lines part the entries; values can stand above or below the compound they belong to. Active and inactive are the calls of the source. No cut-off for these calls is given here.

What was measured:
HeLa [1] = assay: Upregulation of DNAM1 ligand expression in human HeLa cells after 48 hrs by immunofluorescence staining-based flow cytometric analysis; assay type: functional, cell-based
HeLa [2] = assay: Upregulation of NKG2D ligand expression in human HeLa cells after 48 hrs by immunofluorescence staining-based flow cytometric analysis; assay type: functional, cell-based
[3] = target: Protein smoothened (Mus musculus) (UniProt P56726); assay: Antagonist activity at smo receptor in mouse NIH3T3 Shh-Light II cells assessed as inhibition of SAG-induced hedgehog pathway after 48 hrs by dual luciferase reporter gene assay; assay type: cell-based
[4] = Intrinsic clearance in mouse liver microsomes assessed per mg of protein preincubated for 10 mins followed by NADP/Glc6P/G6P-DH addition by LC-MS/MS analysis; assay type: ADME; conditions: read-out: CLH
[5] = Intrinsic clearance in human liver microsomes assessed per mg of protein preincubated for 10 mins followed by NADP/Glc6P/G6P-DH addition by LC-MS/MS analysis; assay type: ADME; conditions: read-out: CLH
HepG2 [6] = assay: Induction of apoptosis in human HepG2 cells after 48 hrs by propidium iodide/annexin V-FITC staining-based cytofluorometric analysis; assay type: functional, cell-based
PC-3 [7] = assay: Cell cycle arrest in human PC3 cells assessed as accumulation at G2/M phase at 500 to 2000 nM after 24 hrs by propidium iodide staining-based flow cytometric analysis; assay type: functional
HepG2 [8] = assay: Cell cycle arrest in human HepG2 cells assessed as accumulation at G2/M phase at 500 to 2000 nM after 24 hrs by propidium iodide staining-based flow cytometric analysis; assay type: functional
NCI-H1975 = assay: Cytotoxicity against human NCI-H1975 cells assessed as growth inhibition after 72 hrs by CellTiter-Fluor assay; assay type: functional, cell-based; conditions: NCI-H1975, 72 h
OVCAR-8 = assay: cells; conditions: Homo sapiens, OVCAR-8, 48 h
Description: Cytotoxicity against human OVCAR8 cells assessed as growth inhibition after 48 hrs by SRB assay

RD [9] = assay: Cytotoxicity against human RD cells assessed as growth inhibition after 48 hrs by MTT assay; assay type: functional, cell-based
RD [10] = assay: Cell cycle arrest in human RD cells assessed as accumulation at G2/M phase at 500 to 2000 nM after 24 hrs by propidium iodide staining-based flow cytometric analysis; assay type: functional
PC-3 [11] = assay: Induction of apoptosis in human PC3 cells after 48 hrs by propidium iodide/annexin V-FITC staining-based cytofluorometric analysis; assay type: functional, cell-based
RD [12] = assay: Induction of apoptosis in human RD cells at 500 nM after 48 hrs by propidium iodide/annexin V-FITC staining-based cytofluorometric analysis; assay type: functional, cell-based
PC-3 [13] = assay: cells; conditions: Homo sapiens, PC-3, 48 h
Description: Cytotoxicity against human PC3 cells assessed as growth inhibition after 48 hrs by MTT assay

HeLa [14] = assay: Induction of apoptosis in human HeLa cells at 20 nM after 24 hrs by propidium iodide/annexin V-FITC staining-based cytofluorometric analysis; assay type: functional, cell-based
HeLa [15] = assay: Cell cycle arrest in human HeLa cells assessed as accumulation at sub-G1 phase at 20 nM after 24 hrs by propidium iodide staining-based flow cytometric analysis; assay type: functional
[16] = Cytotoxicity against human MESSA/DX5 cells assessed as growth inhibition after 72 hrs by CellTiter-Glo assay; assay type: functional, cell-based; conditions: MES-SA/Dx5, 72 h
HeLa [17] = assay: Inhibition of microtubule polymerization in human HeLa cells assessed as appearance of tubulin foci and/or small asters of short microtubule fragments at 20 nM after 24 hrs by immunofluorescence staining-based microscopic analysis; assay type: cell-based
HeLa [18] = assay: Cell cycle arrest in human HeLa cells assessed as accumulation at G2/M phase at 20 nM after 24 hrs by propidium iodide staining-based flow cytometric analysis; assay type: functional
[19] = Cytotoxicity against human MESSA cells assessed as growth inhibition after 72 hrs by CellTiter-Glo assay; assay type: functional, cell-based; conditions: MES-SA
cells = conditions: Homo sapiens, NCI/ADR-RES, 48 h
Description: Cytotoxicity against Pgp overexpressing human NCI-ADR-RES cells assessed as growth inhibition after 48 hrs by SRB assay

Protein smoothened (Mus musculus), sequence (P56726 whole entry): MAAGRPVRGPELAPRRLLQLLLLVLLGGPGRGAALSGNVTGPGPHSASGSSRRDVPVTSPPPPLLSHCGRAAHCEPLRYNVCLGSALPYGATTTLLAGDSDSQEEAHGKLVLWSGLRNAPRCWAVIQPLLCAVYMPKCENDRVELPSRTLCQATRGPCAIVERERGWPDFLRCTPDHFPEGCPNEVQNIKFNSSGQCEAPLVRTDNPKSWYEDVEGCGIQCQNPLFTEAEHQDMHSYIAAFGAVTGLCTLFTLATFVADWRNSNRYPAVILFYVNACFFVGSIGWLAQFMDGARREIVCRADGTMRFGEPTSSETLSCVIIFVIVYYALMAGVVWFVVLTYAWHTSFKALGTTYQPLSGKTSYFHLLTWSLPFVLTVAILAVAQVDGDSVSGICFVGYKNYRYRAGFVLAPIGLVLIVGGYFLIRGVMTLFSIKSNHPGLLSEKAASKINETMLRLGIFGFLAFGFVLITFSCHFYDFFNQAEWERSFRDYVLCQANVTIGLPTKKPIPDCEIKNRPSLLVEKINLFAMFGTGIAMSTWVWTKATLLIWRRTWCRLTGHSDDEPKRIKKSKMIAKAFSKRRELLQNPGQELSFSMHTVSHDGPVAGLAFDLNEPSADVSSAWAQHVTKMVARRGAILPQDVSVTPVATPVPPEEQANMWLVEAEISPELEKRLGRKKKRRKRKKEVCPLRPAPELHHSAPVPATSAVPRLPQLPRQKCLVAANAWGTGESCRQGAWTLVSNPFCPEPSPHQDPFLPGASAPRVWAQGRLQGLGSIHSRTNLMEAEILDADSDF

Compound: COc1cc(C(=O)c2ccn(-c3cccc(N)c3)c2)cc(OC)c1OC
Activity (HeLa [1]): inactive
Activity (HeLa [2]): inactive

inhibition [3]: Dose-dependent effect
Compound: COc1cc(Sc2c(-c3ccccc3)[nH]c3c(Cl)c(Cl)ccc23)cc(OC)c1OC

inhibition [3]: Dose-dependent effect
Compound: COc1cc(Sc2c(-n3ccnc3)[nH]c3ccccc23)cc(OC)c1OC

Compound: COc1ccc2c(Sc3cc(OC)c(OC)c(OC)c3)c(-c3ccccc3)[nH]c2c1
inhibition [3]: Dose-dependent effect

microsomal CLint [4]: 711 µL/min/mg
microsomal CLint [5]: 209 µL/min/mg
Compound: CCOc1ccc2ccc(=O)oc2c1 [ETHOXYCOUMARIN]

pIC50 (OVCAR-8): 8.43
Compound: CC(=O)O[C@H]1C(=O)[C@@]2(C)[C@H]([C@H](OC(=O)c3ccccc3)[C@]3(O)C[C@H](OC(=O)[C@H](O)[C@@H](NC(=O)c4ccccc4)c4ccccc4)C(C)=C1C3(C)C)[C@]1(OC(C)=O)CO[C@@H]1C[C@@H]2O [PACLITAXEL]
Activity (HepG2 [6]): Dose-dependent effect
Activity (PC-3 [7]): Active
Activity (HepG2 [8]): Active
pIC50 (NCI-H1975): 8.60
pIC50 (RD [9]): < 5.00
Activity (RD [10]): Active
Activity (PC-3 [11]): Dose-dependent effect
Activity (RD [12]): Active

Compound: CC[C@]1(O)C[C@@H]2CN(CCc3c([nH]c4ccccc34)[C@@](C(=O)OC)(c3cc4c(cc3OC)N(C)[C@H]3[C@@](O)(C(=O)OC)[C@H](OC(C)=O)[C@]5(CC)C=CCN6CC[C@]43[C@@H]65)C2)C1 [VINBLASTINE]
pIC50 (PC-3 [13]): 6.12
Activity (HeLa [14]): Active
Activity (HeLa [15]): Active
pIC50 [16]: 6.84
inhibition (HeLa [17]): Active
Activity (HeLa [18]): >80%
pIC50 [19]: 8.52
pIC50 (cells): 6.70

Compound: CCC1=C[C@@H]2CN(C1)Cc1c([nH]c3ccccc13)[C@@](C(=O)OC)(c1cc3c(cc1OC)N(C)[C@H]1[C@@](O)(C(=O)OC)[C@H](OC(C)=O)[C@]4(CC)C=CCN5CC[C@]31[C@@H]54)C2 [VINORELBINE]
pIC50 (cells): 5.30
